Source: patent US20230117034A1, “PYRAZOLOTRIAZINES” (Bayer Aktiengesellschaft, priority 2019, published 2023)

What was measured:
[1] = molecular target: T1, CDK12 (nuclear staining in CAL-120 cells) (Homo sapiens, UniProt Q9NYV4); experiment: CDK12 nuclear protein level: immunofluorescence/high content analysis (CAL-120); assay type: cell-based; conditions: for DC50: CAL-120 cells, 24 h, immunofluorescence, 50% reduction of nuclear CDK12 staining intensity, median, read-out: CDK12 degradation IF, DC50- [mol/l] (median); for (IC50 CDK12 high ATP) to (Degradation DC50 CDK12) ratio: ratio of IC50 CDK12 high ATP kinase assay to DC50 CDK12 degradation (IF, CAL-120)
T1 construct: endogenous in cells; host or cells: CAL-120 human breast cancer cells (DSMZ ACC 459)
Outline: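 CAL-120 cells were treated with compound for 24 h at 37 °C, fixed with PFA and immunostained for CDK12. Nuclear CDK12 intensity was quantified by automated image analysis and normalized to DMSO and control. DC50 is the concentration giving 50% reduction of nuclear staining.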

[2] = molecular target: CDK12/CycK (Homo sapiens, UniProt Q9NYV4); experiment: CDK12/CycK high ATP kinase assay (TR-FRET, 2 mM ATP); assay type: biochemical; conditions: 2 mM ATP (high ATP); median; read-out: CDK12/CyclinK, 2 mM ATP (high ATP), IC50-[mol/l] (median)
Outline: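 His-tagged human CDK12/CycK (~0.75 nM) pre-incubated 15 min with compound, then 60 min at 22 °C with 2 mM ATP and 1 µM biotinylated peptide (HEPES pH 7.5, 20 mM MgCl2). EDTA stop; phospho-Ser62 antibody/Eu anti-rabbit and streptavidin-XL665 TR-FRET, 665/620 nm ratio normalised to give IC50.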

T1 sequence (Q9NYV4 whole entry): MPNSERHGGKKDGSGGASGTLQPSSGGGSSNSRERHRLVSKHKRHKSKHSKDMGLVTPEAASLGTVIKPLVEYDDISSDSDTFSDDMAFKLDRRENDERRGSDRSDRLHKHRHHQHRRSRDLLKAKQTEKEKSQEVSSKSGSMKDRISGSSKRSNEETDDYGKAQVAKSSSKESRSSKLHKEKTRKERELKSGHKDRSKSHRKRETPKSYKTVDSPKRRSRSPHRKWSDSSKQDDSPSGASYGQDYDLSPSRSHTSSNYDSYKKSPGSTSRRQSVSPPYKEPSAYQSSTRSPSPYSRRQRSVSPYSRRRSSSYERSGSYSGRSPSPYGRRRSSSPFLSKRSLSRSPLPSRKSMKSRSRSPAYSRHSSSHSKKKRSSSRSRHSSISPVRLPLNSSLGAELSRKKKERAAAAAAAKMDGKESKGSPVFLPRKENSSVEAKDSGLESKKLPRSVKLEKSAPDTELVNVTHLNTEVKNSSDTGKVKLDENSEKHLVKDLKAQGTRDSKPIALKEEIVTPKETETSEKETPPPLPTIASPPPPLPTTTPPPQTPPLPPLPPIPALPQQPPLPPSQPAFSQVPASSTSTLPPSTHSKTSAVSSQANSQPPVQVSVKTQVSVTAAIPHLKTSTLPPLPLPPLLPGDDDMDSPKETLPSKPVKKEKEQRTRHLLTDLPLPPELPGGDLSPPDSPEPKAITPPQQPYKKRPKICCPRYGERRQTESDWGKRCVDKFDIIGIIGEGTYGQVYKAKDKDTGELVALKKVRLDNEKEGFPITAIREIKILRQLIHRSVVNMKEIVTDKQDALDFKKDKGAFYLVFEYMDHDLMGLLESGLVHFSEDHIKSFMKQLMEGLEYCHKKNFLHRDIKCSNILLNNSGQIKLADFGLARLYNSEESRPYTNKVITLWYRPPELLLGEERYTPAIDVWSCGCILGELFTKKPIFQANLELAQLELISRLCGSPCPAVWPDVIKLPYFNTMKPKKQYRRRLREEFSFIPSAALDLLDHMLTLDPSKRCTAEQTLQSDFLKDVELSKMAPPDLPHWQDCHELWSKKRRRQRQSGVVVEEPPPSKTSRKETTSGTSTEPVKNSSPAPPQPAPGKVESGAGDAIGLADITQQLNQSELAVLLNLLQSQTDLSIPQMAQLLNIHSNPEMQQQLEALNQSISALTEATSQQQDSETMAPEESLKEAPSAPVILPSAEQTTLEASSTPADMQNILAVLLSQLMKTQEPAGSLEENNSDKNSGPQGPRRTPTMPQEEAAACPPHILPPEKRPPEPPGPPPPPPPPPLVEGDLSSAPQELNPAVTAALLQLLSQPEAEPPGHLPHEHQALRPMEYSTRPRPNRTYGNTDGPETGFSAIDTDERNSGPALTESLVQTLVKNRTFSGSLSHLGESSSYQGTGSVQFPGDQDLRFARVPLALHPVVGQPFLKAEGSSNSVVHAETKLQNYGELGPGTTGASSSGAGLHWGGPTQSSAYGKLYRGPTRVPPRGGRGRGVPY
T1 sequence (O75909 whole entry partner): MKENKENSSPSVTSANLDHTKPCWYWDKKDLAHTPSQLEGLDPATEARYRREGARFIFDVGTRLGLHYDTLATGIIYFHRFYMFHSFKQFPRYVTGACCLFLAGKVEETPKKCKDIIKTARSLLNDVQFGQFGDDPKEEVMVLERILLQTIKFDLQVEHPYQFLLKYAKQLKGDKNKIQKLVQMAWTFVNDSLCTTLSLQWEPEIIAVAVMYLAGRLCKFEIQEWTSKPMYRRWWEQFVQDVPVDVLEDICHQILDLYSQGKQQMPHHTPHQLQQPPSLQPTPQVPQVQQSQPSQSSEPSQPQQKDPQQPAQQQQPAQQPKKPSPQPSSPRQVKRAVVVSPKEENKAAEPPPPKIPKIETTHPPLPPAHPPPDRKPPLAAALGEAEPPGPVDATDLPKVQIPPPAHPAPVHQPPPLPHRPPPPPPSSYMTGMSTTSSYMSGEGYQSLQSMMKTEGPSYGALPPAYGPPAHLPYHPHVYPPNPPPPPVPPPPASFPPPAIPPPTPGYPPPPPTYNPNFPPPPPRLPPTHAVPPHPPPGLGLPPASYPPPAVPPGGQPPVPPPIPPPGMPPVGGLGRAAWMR
CDK12/CycK, sequence (Q9NYV4 with tags, fused parts or gaps): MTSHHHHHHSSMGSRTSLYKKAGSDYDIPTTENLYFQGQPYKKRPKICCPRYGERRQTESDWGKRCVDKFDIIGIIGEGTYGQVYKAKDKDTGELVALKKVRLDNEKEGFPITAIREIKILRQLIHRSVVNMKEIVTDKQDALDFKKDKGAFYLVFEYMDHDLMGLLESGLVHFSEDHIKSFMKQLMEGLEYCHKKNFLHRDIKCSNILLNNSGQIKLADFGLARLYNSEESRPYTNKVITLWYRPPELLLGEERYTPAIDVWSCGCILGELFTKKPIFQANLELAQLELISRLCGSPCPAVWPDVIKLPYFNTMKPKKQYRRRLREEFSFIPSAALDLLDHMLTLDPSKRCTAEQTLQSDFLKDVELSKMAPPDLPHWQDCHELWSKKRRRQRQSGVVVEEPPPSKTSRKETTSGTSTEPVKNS
CDK12/CycK, sequence (O75909 1-300 partner limits assumed): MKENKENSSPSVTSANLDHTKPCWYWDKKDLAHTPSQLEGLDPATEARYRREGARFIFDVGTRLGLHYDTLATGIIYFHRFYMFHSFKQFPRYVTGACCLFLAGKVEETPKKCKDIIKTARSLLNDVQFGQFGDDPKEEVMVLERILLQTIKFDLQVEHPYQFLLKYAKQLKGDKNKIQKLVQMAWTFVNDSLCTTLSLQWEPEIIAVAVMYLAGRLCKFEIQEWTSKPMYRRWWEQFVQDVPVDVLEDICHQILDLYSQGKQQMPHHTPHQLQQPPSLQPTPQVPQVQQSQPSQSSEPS

Row | DC50 [1] | (IC50 CDK12 high ATP) to (Degradation DC50 CDK12) ratio [1] | IC50 [2] | Compound
1 | 347 nM | >58 | > 20000 nM | CN(CCN1CCCC1)c1nc(NCc2nc3ccccc3[nH]2)n2ncc(Br)c2n1 [Example 239, N4-(1H-benzimidazol-2-ylmethyl)-8-bromo-N2-methyl-N2-(2-pyrrolidin-1-ylethyl)pyrazolo[1,5-a][1,3,5]triazine-2,4-diamine]
2 | 104 nM | >192 | > 20000 nM | Brc1cnn2c(NCc3nc4ccccc4[nH]3)nc(NCCN3CCCC3)nc12 [Example 235, N4-(1H-benzimidazol-2-ylmethyl)-8-bromo-N2-(2-pyrrolidin-1-ylethyl)pyrazolo[1,5-a][1,3,5]triazine-2,4-diamine]
3 | 43.8 nM | >457 | > 20000 nM | CC(C)c1cnn2c(NCc3nc4ccccc4[nH]3)nc(Nc3ccccc3)nc12 [Example 13, N^4-[(1H-benzimidazol-2-yl)methyl]-N^2-phenyl-8-(propan-2-yl)pyrazolo[1,5-a][1,3,5]triazine-2,4-diamine]
4 | 33.9 nM | >590 | > 20000 nM | CN1CCCC2CN(c3nc(NCc4nc5ccccc5[nH]4)n4ncc(Br)c4n3)CC21 (stereo not drawn) [Example 231, N-[(1H-benzimidazol-2-yl)methyl]-8-bromo-2-(1-methyloctahydro-6H-pyrrolo[3,4-b]pyridin-6-yl)pyrazolo[1,5-a][1,3,5]triazin-4-amine]
5 | 35.7 nM | >561 | > 20000 nM | CN(C)[C@H]1CCN(c2nc(NCc3nc4ccccc4[nH]3)n3ncc(Br)c3n2)C1 [Example 177, N-[(1H-benzimidazol-2-yl)methyl]-8-bromo-2-[(3S)-3-(dimethylamino)pyrrolidin-1-yl]pyrazolo[1,5-a][1,3,5]triazin-4-amine]
6 | 48.8 nM | 123 | 6010 nM | CO[C@H]1CCN(c2nc(NCc3nc4ccccc4[nH]3)n3ncc(Br)c3n2)C1 [Example 222, N-[(1H-benzimidazol-2-yl)methyl]-8-bromo-2-[(3S)-3-methoxypyrrolidin-1-yl]pyrazolo[1,5-a][1,3,5]triazin-4-amine]
7 | 66 nM | >303 | > 20000 nM | COCCNc1nc(NCc2nc3ccccc3[nH]2)n2ncc(Br)c2n1 [Example 230, N4-(1H-benzimidazol-2-ylmethyl)-8-bromo-N2-(2-methoxyethyl)pyrazolo[1,5-a][1,3,5]triazine-2,4-diamine]
8 | 267 nM | >75 | > 20000 nM | Cc1cc(-c2cnn3c(NCc4nc5ccccc5[nH]4)nc(N4CCN(C)CC4)nc23)ccn1 [Example 243, N-[(1H-benzimidazol-2-yl)methyl]-2-(4-methylpiperazin-1-yl)-8-(2-methylpyridin-4-yl)pyrazolo[1,5-a][1,3,5]triazin-4-amine]
9 | 128 nM | 58 | 7350 nM | CN(CCO)c1nc(NCc2nc3ccccc3[nH]2)n2ncc(Br)c2n1 [Example 237, 2-[(4-{[(1H-benzimidazol-2-yl)methyl]amino}-8-bromopyrazolo[1,5-a][1,3,5]triazin-2-yl)(methyl)amino]ethan-1-ol]
10 | 47.1 nM | >425 | > 20000 nM | OCCNc1nc(NCc2nc3ccccc3[nH]2)n2ncc(Br)c2n1 [Example 228, 2-[(4-{[(1H-benzimidazol-2-yl)methyl]amino}-8-bromopyrazolo[1,5-a][1,3,5]triazin-2-yl)amino]ethan-1-ol]

Row | Compound | DC50 [1] | (IC50 CDK12 high ATP) to (Degradation DC50 CDK12) ratio [1] | IC50 [2]
11 | CN1CC2CCC(C1)N2c1nc(NCc2nc3ccccc3[nH]2)n2ncc(Br)c2n1 [Example 226, N-(1H-benzimidazol-2-ylmethyl)-8-bromo-2-(3-methyl-3,8-diazabicyclo[3.2.1]octan-8-yl)pyrazolo[1,5-a][1,3,5]triazin-4-amine] | 27.6 nM | >725 | > 20000 nM
